Test results: ChEMBL document CHEMBL3137667, “[Drug-induced liver injury; fourteenth updated edition of the bibliographic database of liver injuries and related drugs]” (Gastroenterol Clin Biol, 2004)

Legend:
[1] = human
[2] = Comments (NB not yet translated). [column 'COMMENTAIRES' in source]; details: human
[3] = human; remark: listed apart in the source
[4] = Proposed mechanism(s) of liver damage. [column 'MEC' in source]; details: human
[5] = human, serum
[6] = human; remark: listed apart in the source
[7] = Presence of at least one case with successful reintroduction. [column 'REINT' in source]; details: human
[8] = Highest frequency of acute liver toxicity observed during clinical trials, expressed as a percentage. [column '% AIGUE' in source]; details: human
[9] = human; remark: listed apart in the source
[10] = human; remark: listed apart in the source
[11] = human; remark: listed apart in the source
[12] = human, serum, 4383 h
[13] = human; remark: listed apart in the source
[14] = Times to onset, minimal and maximal, observed in the indexed observations. [column 'DELAI' in source]; details: human
[15] = human; remark: listed apart in the source
[16] = Highest frequency of moderate liver toxicity observed during clinical trials, expressed as a percentage. [column '% BIOL' in source]; details: human
[17] = human; remark: listed apart in the source
[18] = human; remark: listed apart in the source
[19] = human, serum; remark: listed apart in the source
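Wherever Hepatotoxicity (association with vascular disease) is given: count of indexed literature references reporting vascular liver injury in humans, e.g. peliosis hepatitis, hepatic veno-occlusive disease or Budd-Chiari syndrome.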
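Wherever Hepatotoxicity (benign tumour) is given: value is a count of indexed literature references citing a benign tumour confirmed by histopathology.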
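Wherever Hepatotoxicity (choleostasis) is given: human cholestatic liver injury, shown by histopathology or by peak ALT or AST elevation over alkaline phosphatase ratio below 2, value counts indexed literature reports.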
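Wherever Hepatotoxicity (chronic liver disease) is given: chronic liver injury confirmed by histopathology or persistently raised serum aminotransferase activity beyond 6 months, value given as the count of indexed literature references.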
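Wherever Hepatotoxicity (cirrhosis) is given: value is a count of indexed literature references reporting cirrhosis confirmed by histopathology.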
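Wherever Hepatotoxicity (cytolytic) is given: human cytolytic liver injury, shown by histopathology or by a ratio above 5 of peak ALT or AST elevation to alkaline phosphatase elevation, value counts indexed references.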
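Wherever Hepatotoxicity (granulomatous hepatitis) is given: value is a count of indexed literature references reporting granulomatous liver disease confirmed by histopathology.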
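Wherever Hepatotoxicity (malignant tumour) is given: malignant tumour confirmed by histopathology, value gives the count of indexed literature references reporting it.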
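Wherever Hepatotoxicity (severe hepatitis) is given: human clinical data: severe hepatitis, meaning potentially life-threatening liver failure or clinically observed cases, the value counts how many indexed literature references report it.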
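Wherever Hepatotoxicity (steatosis) is given: steatosis confirmed by histopathology, value is the count of indexed references.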

SMILES | Hepatotoxicity (steatosis) [1] | Hepatotoxicity (comment) [2] | Hepatotoxicity (association with vascular disease) [3] | Hepatotoxicity (mechanism) [4] | Hepatotoxicity (moderate) [5] | Hepatotoxicity (granulomatous hepatitis) [6] | Hepatotoxicity (successful reintroduction) [7] | Hepatotoxicity (acute) [8] | Hepatotoxicity (benign tumour) [9] | Hepatotoxicity (cirrhosis) [10] | Hepatotoxicity (cytolytic) [11] | Hepatotoxicity (chronic liver disease) [12] | Hepatotoxicity (choleostasis) [13] | Hepatotoxicity (time to onset) [14] | Hepatotoxicity (severe hepatitis) [15] | Hepatotoxicity (moderate) [16] | Hepatotoxicity (animal toxicity known) [17] | Hepatotoxicity (malignant tumour) [18] | Hepatotoxicity (acute) [19]
NC(=O)c1cnccn1 [PYRAZINAMIDE] | 0 | I/OFLOXACINE AC_ANTI-N | 0 | Allergic, Dose-dependant | 21 | 1 | yes | 31.8% | 0 | 0 | 28 | 1 | 8 | 2 hours - 1.2 years | 19 | 36.4% | yes | 0 | 51
CNC(=O)OCc1cccc(COC(=O)NC)n1 [PYRICARBATE] | 0 | AC_ANTI-MFR/-ML | 0 | Allergic | 4 | 0 | yes | 0.7% | 0 | 0 | 8 | 0 | 4 | 2 weeks - 6 months | 3 | 10% | A | 0 | 9
CO[C@H]1/C=C/O[C@@]2(C)Oc3c(C)c(O)c4c(O)c(c(/C=N/N5CCN(C)CC5)c(O)c4c3C2=O)NC(=O)/C(C)=C\C=C\[C@H](C)[C@H](O)[C@@H](C)[C@@H](O)[C@@H](C)[C@H](OC(C)=O)[C@@H]1C [RIFAMPIN] | 0 | AC_ANTI-N I/ISONIAZIDE/TROLEANDOMYCINE | 0 | Allergic, Dose-dependant | 22 | 0 | yes | 7.3% | 0 | 0 | 14 | 0 | 19 | 2 days - 14 months | 6 | 23% | yes | 0 | 38
CO[C@H]1C[C@H](O[C@H]2[C@H](C)[C@@H](O[C@@H]3O[C@H](C)C[C@H](N(C)C)[C@H]3OC(C)=O)[C@@H](C)C[C@@]3(CO3)C(=O)[C@H](C)[C@@H](OC(C)=O)[C@@H](C)[C@@H](C)OC(=O)[C@@H]2C)O[C@@H](C)[C@@H]1OC(C)=O [TROLEANDOMYCIN] | 0 | CHOLANGITE I/PILULE/RIFAMPICINE RC/ERYTHROMYCINE | 0 | Allergic, Dose-dependant | 15 | 0 | yes | 4% | 0 | 0 | 2 | 0 | 26 | 3 days - 2 weeks | 0 | 83.3% | yes | 0 | 27
